# Laboratory results taken from ChEMBL document CHEMBL1201862, “PubChem BioAssay data set” (2004).
# Structures can show the parent of a compound that is named as a salt. Calls of active or inactive are those of the source.
# Legend:
# [1] = target: T1, Cytochrome P450 3A4 (Homo sapiens, UniProt P08684); details: Potency
# [2] = P. falciparum Dd2 growth inhibitors, dose response, SYBR Green, cherry-picked samples (AID 1159567); assay type: functional, cell-based
# [3] = Luminescence Cell-Based Dose Retest to Confirm Inhibitors of Cancer Stem Cells. [Related pubchem assays (depositor defined):AID2717, AID2721]; assay type: functional; details: Homo sapiens
# [4] = inhibitors of firefly luciferase expression or activity, dose response, H4 neuroglioma cells, luminescence (AID 1990); assay type: functional, cell-based
# [5] = Luminescence Cell-Based Dose Response HTS to Identify Inhibitors of 5'UTR Stem-Loop Driven Prion Protein mRNA Translation in H4 Neuroglioblastoma Cells. [Related pubchem assays: 1827 (Project Summary), 1813 (Primary HTS)]; assay type: functional
# [6] = inhibitors of SNCA 5'UTR-driven reporter translation, confirmation, H4 neuroglioma cells, luminescence (AID 1988); assay type: functional, cell-based
# [7] = target: Nonstructural protein 1 (Influenza A virus, UniProt Q194T2); assay type: functional, Influenza A virus (A/California/07/2009(H1N1))
# Chain of Nonstructural protein 1 (Q194T2 whole entry): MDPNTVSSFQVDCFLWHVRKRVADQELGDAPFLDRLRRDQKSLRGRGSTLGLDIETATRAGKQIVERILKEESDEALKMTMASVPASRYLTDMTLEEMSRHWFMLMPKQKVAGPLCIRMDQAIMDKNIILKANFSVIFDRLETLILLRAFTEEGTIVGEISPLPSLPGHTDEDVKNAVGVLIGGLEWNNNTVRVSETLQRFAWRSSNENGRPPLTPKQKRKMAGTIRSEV
# [8] = tested on: P388/ADR; experiment: cells; assay type: functional; details: Mus musculus
# [9] = tested on: P388; experiment: cells; assay type: functional; details: Mus musculus
# [10] = tested on: SN12K1; experiment: cells; assay type: functional; details: Homo sapiens
# [11] = Shn3 3'UTR reporter inhibitors, dose response, cell-based, Clone20 osteoblasts, firefly luciferase, cherry-picked (AID 624132); assay type: functional;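 further: firefly luciferase luminescence from reporter carrying the Shn3 3'UTR in osteoblasts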
# [12] = control 3'UTR Renilla luciferase suppression, dose response, counter-screen for Shn3 inhibitor project, cell-based, Clone20-Shn3RL, cherry-picked (AID 624133); assay type: functional
# [13] = HepG2 cell cytotoxicity, dose response, cytotoxicity control for Shn3 inhibitor project, CellTiter-Glo, cherry-picked (AID 624134); assay type: functional, cell-based
# [14] = tested on: BJ; experiment: cytotoxicity toward BJ-TERT fibroblasts, dose response, cell-based, RAS-independent, luminescence (AID 1933); assay type: functional; details: Homo sapiens
# [15] = cytotoxicity toward DRD oncogenic fibroblasts, dose response, cell-based, non-viral oncogenic, luminescence (AID 1934); assay type: functional; details: Homo sapiens
# [16] = tested on: BJ; experiment: cells; assay type: functional, cell-based; details: Homo sapiens
# [17] = target: T2, Replicative DNA helicase DnaB (Mycobacterium tuberculosis, UniProt P9WMR3); experiment: DnaB intein splicing inhibitors, dose response, biochemical, cell-free fluorescence (AID 449749); assay type: functional
# T2 sequence (P9WMR3 whole entry): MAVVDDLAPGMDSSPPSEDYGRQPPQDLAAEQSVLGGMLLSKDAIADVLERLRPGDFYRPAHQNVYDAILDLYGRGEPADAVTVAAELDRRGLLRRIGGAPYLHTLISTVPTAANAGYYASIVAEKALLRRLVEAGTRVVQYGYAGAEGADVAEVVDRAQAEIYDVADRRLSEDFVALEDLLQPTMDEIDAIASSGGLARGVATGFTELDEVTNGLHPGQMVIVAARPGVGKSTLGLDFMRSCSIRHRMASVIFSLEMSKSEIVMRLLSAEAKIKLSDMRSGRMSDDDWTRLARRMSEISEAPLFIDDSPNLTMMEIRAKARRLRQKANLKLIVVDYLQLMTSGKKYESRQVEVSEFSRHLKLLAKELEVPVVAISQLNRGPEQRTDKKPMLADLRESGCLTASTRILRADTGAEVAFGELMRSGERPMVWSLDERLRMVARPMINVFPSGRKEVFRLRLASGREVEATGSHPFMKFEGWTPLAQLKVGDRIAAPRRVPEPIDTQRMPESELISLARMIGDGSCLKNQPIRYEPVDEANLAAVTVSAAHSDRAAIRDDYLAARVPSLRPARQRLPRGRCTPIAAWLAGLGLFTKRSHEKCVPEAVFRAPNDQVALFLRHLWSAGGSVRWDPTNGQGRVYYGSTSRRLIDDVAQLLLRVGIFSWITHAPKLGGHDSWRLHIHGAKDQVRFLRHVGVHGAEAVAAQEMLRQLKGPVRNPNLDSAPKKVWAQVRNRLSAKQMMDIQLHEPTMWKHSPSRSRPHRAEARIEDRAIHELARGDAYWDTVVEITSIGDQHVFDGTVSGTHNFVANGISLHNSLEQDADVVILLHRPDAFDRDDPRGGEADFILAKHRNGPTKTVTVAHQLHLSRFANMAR
# [18] = HEp-2 cell cytotoxicity, dose response, cytotoxicity control for RSV inhibitor project, HTS (AID 2410); assay type: functional; details: human respiratory syncytial virus
# [19] = target: T3, Protein RecA (Mycobacterium tuberculosis, UniProt P9WHJ3); experiment: Fluorescence Cell-Free Homogeneous Dose Retest to Identify Inhibitors of RecA-Intein Splicing Activity. [Related pubchem assays (depositor defined):AID2097, AID2223, AID489010, AID492950]; assay type: functional
# T3 sequence (P9WHJ3 whole entry): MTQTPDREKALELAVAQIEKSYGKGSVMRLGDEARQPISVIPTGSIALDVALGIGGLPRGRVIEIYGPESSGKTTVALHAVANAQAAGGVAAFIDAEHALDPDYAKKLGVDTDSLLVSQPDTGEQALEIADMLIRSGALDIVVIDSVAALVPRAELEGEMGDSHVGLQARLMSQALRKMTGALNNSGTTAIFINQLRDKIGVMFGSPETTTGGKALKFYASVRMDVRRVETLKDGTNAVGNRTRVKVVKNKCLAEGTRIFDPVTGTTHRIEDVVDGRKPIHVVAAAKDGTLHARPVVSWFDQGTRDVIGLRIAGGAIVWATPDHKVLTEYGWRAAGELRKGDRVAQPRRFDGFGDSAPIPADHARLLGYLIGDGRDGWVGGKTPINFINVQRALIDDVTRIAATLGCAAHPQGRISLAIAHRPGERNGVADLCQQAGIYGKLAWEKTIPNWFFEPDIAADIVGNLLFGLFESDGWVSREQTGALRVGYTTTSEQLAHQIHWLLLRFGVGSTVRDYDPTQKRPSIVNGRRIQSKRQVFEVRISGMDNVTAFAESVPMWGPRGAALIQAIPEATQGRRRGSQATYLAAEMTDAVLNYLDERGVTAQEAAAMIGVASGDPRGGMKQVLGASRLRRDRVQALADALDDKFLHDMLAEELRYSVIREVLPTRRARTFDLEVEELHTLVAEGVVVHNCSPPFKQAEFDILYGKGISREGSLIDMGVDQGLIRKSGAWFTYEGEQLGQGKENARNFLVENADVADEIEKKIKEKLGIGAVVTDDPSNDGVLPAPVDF
# [20] = tested on: BJ; experiment: cytotoxicity toward BJ-TERT-LT-ST fibroblasts, dose response, cell-based, RAS-independent, luminescence (AID 1935); assay type: functional; details: Homo sapiens;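 further: BJ fibroblasts immortalized with TERT plus LT and ST oncogenes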
# [21] = intracellular Trypanosoma cruzi inhibitors in host cells – cell-based, plate reader, cherry-pick samples, set 3, dose response (AID 651818); assay type: functional;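 further: compounds incubated with infected cells for about four days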
# [22] = target: Luciferin 4-monooxygenase (Photinus pyralis, UniProt P08659); experiment: firefly luciferase enzyme inhibitors, dose response, biochemical, luminescence (AID 1891)
# Chain of Luciferin 4-monooxygenase (P08659 whole entry): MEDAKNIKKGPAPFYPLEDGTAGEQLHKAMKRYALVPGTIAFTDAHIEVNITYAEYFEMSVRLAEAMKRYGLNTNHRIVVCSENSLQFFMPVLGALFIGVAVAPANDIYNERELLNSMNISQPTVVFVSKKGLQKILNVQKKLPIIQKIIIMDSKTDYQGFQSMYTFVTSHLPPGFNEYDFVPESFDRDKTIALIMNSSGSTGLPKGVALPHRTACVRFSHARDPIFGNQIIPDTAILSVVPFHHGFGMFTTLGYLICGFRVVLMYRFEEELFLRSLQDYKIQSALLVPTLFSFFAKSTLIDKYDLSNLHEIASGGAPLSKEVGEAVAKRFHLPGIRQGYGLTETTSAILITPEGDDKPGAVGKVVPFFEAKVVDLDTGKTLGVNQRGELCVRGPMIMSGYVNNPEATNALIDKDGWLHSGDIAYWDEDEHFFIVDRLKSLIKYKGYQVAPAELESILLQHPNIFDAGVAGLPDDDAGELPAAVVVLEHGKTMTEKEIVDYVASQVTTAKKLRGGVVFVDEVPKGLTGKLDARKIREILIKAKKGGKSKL
# [23] = Luminescence Cell-Based Dose Confirmation HTS to Identify Inhibitors of Platelet Dense Granule Release. [Related pubchem assays: 1663 (Primary HTS), 1678 (Summary of Project)]; assay type: functional
# [24] = target: T1, Cytochrome P450 3A4
# T1 sequence (P08684 whole entry): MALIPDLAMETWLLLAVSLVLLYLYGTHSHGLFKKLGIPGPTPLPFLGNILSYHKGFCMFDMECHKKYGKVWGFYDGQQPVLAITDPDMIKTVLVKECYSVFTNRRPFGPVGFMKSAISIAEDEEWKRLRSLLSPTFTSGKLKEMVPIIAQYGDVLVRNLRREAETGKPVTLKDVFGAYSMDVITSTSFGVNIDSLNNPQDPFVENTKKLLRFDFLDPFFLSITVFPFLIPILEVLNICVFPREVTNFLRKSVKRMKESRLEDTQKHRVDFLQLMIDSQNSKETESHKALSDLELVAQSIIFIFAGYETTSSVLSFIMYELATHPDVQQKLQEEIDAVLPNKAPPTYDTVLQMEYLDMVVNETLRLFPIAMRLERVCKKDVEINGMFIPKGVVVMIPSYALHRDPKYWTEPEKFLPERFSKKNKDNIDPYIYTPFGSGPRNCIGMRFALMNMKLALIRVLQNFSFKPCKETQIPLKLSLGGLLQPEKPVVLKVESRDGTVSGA
compound,measurement,setting,value
Cn1c(N)c(C(=O)COC(=O)c2cc(C3CC3)nc3ccccc23)c(=O)n(Cc2ccccc2)c1=O,AC50,[1],15.8 µM (inconclusive)
COc1ccccc1-c1cccc(-c2nc(C(=O)Nc3nccs3)cc3c2[C@H](CCO)N(C(=O)CC2CC2)C3)c1,AC50,[2],4.27 µM (active)
CC(C)(C)c1cc(CSC(S)=NC2CCS(=O)(=O)C2)c(Br)c(C(C)(C)C)c1 (stereo unspecified),AC50,[3],3.19 µM (active)
O=C(/C=C/c1c[nH]c2ccccc12)c1cccc2ccccc12,AC50,[3],2.92 µM (active)
COc1ccc(-c2cc(-c3cccnc3)c(C#N)c(N)n2)cc1,EC50,[4],22 µM (active)
same,EC50,[5],12.7 µM (active)
same,EC50,[6],23 µM (active)
Nc1[nH]c(N=NC(=O)c2ccccc2O)c2ccccc12,IC50,[7],24.5 µM (active)
Oc1cc(Cl)ccc1Cl,AC50,[1],31.6 µM (inconclusive)
CCOC(=O)c1[nH]c(C)c(C(=O)OCc2ccccc2F)c1C,AC50,[3],0.633 µM (active)
O=S1(=O)C(=C(c2ccccc2)c2ccccc2)S(=O)(=O)c2ccccc21,GI50,[8],> 100 µM (inactive)
same,GI50,[9],> 31.6 µM (inactive)
same,GI50,[10],28.2 µM (inactive)
CCCCCCn1c(SCC(C)C)nc2c1c(=O)[nH]c(=O)n2C,EC50,[4],15.4 µM (active)
same,EC50,[5],> 120 µM (not active)
same,EC50,[6],18.8 µM (active)
CC(C)C#Cc1ccc([C@@H]2[C@H](CO)N3CCCCN(C(=O)c4ccc5c(c4)OCO5)C[C@@H]23)cc1,AC50,[2],5.18 µM (active)
CC(C)(C)[S@+]([O-])N1Cc2cc(C(=O)NCCN3CCCC3)nc(-c3cccc(-c4ccc(C#N)cc4)c3)c2[C@@H]1CCO,AC50,[2],6.6 µM (active)
Cc1c2ccccc2c(C)c2c1ccc1ccccc12,AC50,[1],12.6 µM (inconclusive)
COc1ccc(NC(=O)Cn2nnc(-c3ccccc3NS(=O)(=O)c3ccccc3)n2)cc1,AC50,[11],485 nM (active)
same,AC50,[12],16.1 µM (active)
same,AC50,[13],9.81 µM (active)
CCC(C)N(CC(=O)Nc1cccc(C)c1C)C(=O)CCl (stereo unspecified),EC50,[14],0.608 µM (active)
same,EC50,[15],3.8 µM (active)
same,EC50,[16],5.48 µM (active)
same,AC50,[17],57.3 µM (active)
same,CC50,[18],8.39 µM (active)
same,EC50,[19],8.81 µM (active)
same,EC50,[20],10.8 µM (active)
COC1=C[C@H]2[C@H]3Cc4ccc(OC)c(O)c4[C@@]2(CCN3C)CC1=O,AC50,[1],31.6 µM (inconclusive)
Cc1ccc(S(=O)(=O)Oc2cc(-c3ccccc3)nc3ccccc23)cc1,GI50,[8],1.91 µM (inactive)
same,GI50,[9],1.15 µM (inactive)
same,GI50,[10],1.61 µM (inactive)
CC(C)(/N=N/C(C)(C)C(=N)N)C(=N)N,AC50,[1],39.8 µM (inconclusive)
CCCCc1nccc2c(C)c3[nH]c4ccccc4c3cc12,GI50,[8],2 µM (inactive)
same,GI50,[9],1.77 µM (inactive)
same,GI50,[10],2.14 µM (inactive)
CC1=CC(C)(C)N(C(=O)CCl)c2cc(C)ccc21,EC50,[14],5.77 µM (active)
same,EC50,[15],29.8 µM (active)
same,EC50,[16],> 150 µM (not active)
same,EC50,[20],> 150 µM (not active)
CNNCc1ccc(C(=O)NC(C)C)cc1 [PROCARBAZINE HYDROCHLORIDE],GI50,[8],> 485 µM (inactive)
same,GI50,[9],> 500 µM (inactive)
same,GI50,[10],> 456 µM (inactive)
CCCCCCCCCCCC[S+](C)C,GI50,[8],27.8 µM (inactive)
same,GI50,[9],0.236 µM (active)
same,GI50,[10],5.33 µM (inactive)
COc1ccc(Oc2c(C)oc3cc(OC(=O)N4CCOCC4)ccc3c2=O)cc1,EC50,[4],> 120 µM (not active)
same,EC50,[5],> 120 µM (not active)
same,EC50,[6],59.2 µM (active)
O=C(/C=C/c1ccccc1)c1ccc(O)cc1 [4'-HYDROXYCHALCONE],AC50,[1],39.8 µM (inconclusive)
CN(C)CC1CC/C(=C\c2ccc(Cl)cc2)C1=O (stereo unspecified),GI50,[8],0.509 µM (active)
same,GI50,[9],0.31 µM (active)
same,GI50,[10],2.21 µM (inactive)
CC(C)(C)c1ccc(OCCON2C(=O)CCC2=O)c(Cl)c1,EC50,[4],> 120 µM (not active)
same,EC50,[5],13.6 µM (active)
same,EC50,[6],18.3 µM (active)
C[C@@H]1CCCCO[C@H](CN(C)Cc2ccc(C(=O)Nc3ccccc3N)cc2)[C@@H](C)CN([C@H](C)CO)C(=O)c2cc(NS(=O)(=O)c3ccc(Cl)cc3)ccc2O1,AC50,[21],1.11 µM (active)
O=C1[C@@H]2Cc3c([nH]c4ccccc34)C(c3ccccc3)N2C(=O)CN1C1CCN(Cc2ccccc2)CC1 (stereo partly specified),IC50,[7],> 100 µM (active)
O=C1C=CC(=O)c2c(O)cccc21 [JUGLONE],AC50,[1],39.8 µM (inconclusive)
CO[C@@H]1CN(C)C(=O)c2ccc(NC(=O)NC3CCCCC3)cc2OC[C@@H](C)N(CCc2ccccc2)C[C@H]1C,AC50,[2],5.41 µM (active)
COC(=O)C(C(=O)OC)C1O[C@@]23COCCC2(C)C3c2ccccc21 (stereo partly specified),AC50,[1],3.16 µM (inconclusive)
COc1cc2cc(C(=O)N3CCN(Cc4ccc5c(c4)OCO5)CC3)[nH]c2cc1OC,EC50,[4],> 120 µM (not active)
same,EC50,[22],> 112 µM (not active)
same,EC50,[5],> 120 µM (not active)
same,EC50,[23],> 112 µM (not active)
same,EC50,[6],> 120 µM (not active)
C[C@@H]1CN([C@H](C)CO)C(=O)c2cccc(NS(=O)(=O)c3cccs3)c2O[C@H]1CN(C)Cc1ccc(C(F)(F)F)cc1,AC50,[2],7.6 µM (active)
CN(C)C(=O)N(CCCl)N=O,GI50,[8],> 100 µM (inactive)
same,GI50,[9],> 100 µM (inactive)
same,GI50,[10],> 100 µM (inactive)
O=c1[nH]c(=O)n([C@H]2CCCO2)cc1F,GI50,[8],37.7 µM (inactive)
same,GI50,[9],24.3 µM (inactive)
same,GI50,[10],369 µM (inactive)
COc1cc(-c2ccc3oc(-c4cccc(C)c4)c(C#CC4(O)CCCCC4)c3c2)cc(OC)c1OC,AC50,[3],8.67 µM (active)
COc1ccc2c(c1)CCc1c(CO)c(COC(=O)NC(C)C)n(C)c1-2,GI50,[8],2.2 µM (inactive)
same,GI50,[9],1.17 µM (inactive)
same,GI50,[10],3.32 µM (inactive)
COc1ccccc1/C=C1\SC(NNC(=O)c2cccc(Br)c2)=NC1=O,AC50,[3],2.09 µM (active)
CCOC(=O)CSC1=C(C#N)C(c2sccc2C)CC(=O)N1 (stereo unspecified),AC50,[24],15.8 µM (inconclusive)
same,AC50,[3],0.722 µM (active)
